According to patent US7504537B2, “Hydroxamic acid derivative and MMP inhibitor containing the same as active ingredient” (Dainippon Sumitomo Pharma Co., Ltd., priority 2001, dated 2009):

Columns and labels:
MMP-13 = biological target: T1, MMP-13 (Homo sapiens, UniProt P45452); assay: Test 2 Test on MMP-13 inhibition activity (fluorogenic peptide substrate); format: biochemical; conditions: activated MMP-13, 37° C.
T1 construct: a fragment of 767 bp encoding original 84 amino acids of complete MMP-13 and encoding 164 amino acids; made in house; host or cells: E. coli BL21 (DE3), pET11a
From the text: Test 2 Test on MMP-13 Inhibition Activity
In order to subcloning C-terminal truncated cDNA in which the cDNA encodes procollagenase-3 (proMMP-13) (J. Biol. Chem., 269(24), 16766-16773 (1994)), two synthesized oligonucleotide primer fragments: • (5′-[…]-3′ and 5′-[…]-3′: In former the sequence for specific NdeI site (under line) including first methionine is included, and in latter terminal codon and BamHI site (under lined) are included.) were used with human cartilage cell cDNA library for PCR. Due to these primers and Pfu DNA polymelase (STRATAGENE) for PCR, there was obtained a fragment of 767 bp encoding original 84 amino acids of complete MMP-13 and encoding 164 amino acids. The said fragment was cut out with digestion by NdeI and BamHI, and the fragment was annealed to NdeI site and BamHI site of pET11a (STRATAGENE). The recombinant plasmid was transformed into E. coli BL21 (DE3) and the bacteria were cultivated. The crude cell extract was prepared according to the method of Biochemistry. The said extract was dialyzed with 20 mM Tris-HCl (pH 7.2)/5 mM CaCl2/0.02% NaN3 solution, treated with SP-sepharose HP column (1.6×10 cm, Amasham-Pharmacia biotec), and the eluting was carried out by liner gradient from 0 to 0.3 m of sodium chloride solution (50 ml) (partially purified proMMP-13 was eluted at about 0.2M.) The eluted fraction was dialyzed with 20 mM Tris-HCl (pH 7.9)/5 mM CaCl2/200 mM (NH4)2SO4/0.02% NaN3 solution, treated with phenylsepharose HP column (1.6×5 cm, Amersham-Pharmacia biotec), and the eluting was carried out by liner gradient from 0.2M to 0M sulfuric acid ammonium solution (purified proMMP-13 was eluted at about 50 mM.). The eluted fraction was concentrated by YM-5 ultrafilter membrane, and activated by 4-aminophenyl mercuric acetate. Activated MMP-13 was treated with gel filtration chromatography in accordance with the method of Biochemistry to be separated from propeptide. Inhibiting Test Method
Enzyme activity test was carried out by the method of G. Knight (FEBS Lett., 296(3), 263-266 (1992)).
A mixture of activated MMP-13 (20 nM, 10 μl), buffer solution (70 μl, pH 7.5 solution containing 100 mM Tris-HCl solution, 10 mM calcium chloride solution, 100 mM sodium chloride solution and 0.05% Briji-35 solution), MOCAc-Pro-Leu-Gly-Leu-A2pr(DNP)-Ala-Arg-NH2 in 0.1% DMSO solution (100 μM, 10 μl) and a test compound in DMSO solution was incubated for 1.5 hours at 37° C. The mixture was put on a 96 well-plate (100 μl/wel), and the plate was incubated at 37° C. The enzyme activity in the presence of the compound was measured based on fluorescence intensity (λex 320 nm, λem 405 nm), and IC50 was calculated.

MMP-2 = biological target: T2, MMP-2 (Homo sapiens, UniProt P08253); assay: Test 3 MMP-2 inhibition activity test (gelatinase activity assay kit); format: biochemical; conditions: activated human MMP-2, biotin labeled gelatin
T2 construct: purchased Boeringer Manheim (Roche Diagnostics)
T2 sequence (P08253 110-660): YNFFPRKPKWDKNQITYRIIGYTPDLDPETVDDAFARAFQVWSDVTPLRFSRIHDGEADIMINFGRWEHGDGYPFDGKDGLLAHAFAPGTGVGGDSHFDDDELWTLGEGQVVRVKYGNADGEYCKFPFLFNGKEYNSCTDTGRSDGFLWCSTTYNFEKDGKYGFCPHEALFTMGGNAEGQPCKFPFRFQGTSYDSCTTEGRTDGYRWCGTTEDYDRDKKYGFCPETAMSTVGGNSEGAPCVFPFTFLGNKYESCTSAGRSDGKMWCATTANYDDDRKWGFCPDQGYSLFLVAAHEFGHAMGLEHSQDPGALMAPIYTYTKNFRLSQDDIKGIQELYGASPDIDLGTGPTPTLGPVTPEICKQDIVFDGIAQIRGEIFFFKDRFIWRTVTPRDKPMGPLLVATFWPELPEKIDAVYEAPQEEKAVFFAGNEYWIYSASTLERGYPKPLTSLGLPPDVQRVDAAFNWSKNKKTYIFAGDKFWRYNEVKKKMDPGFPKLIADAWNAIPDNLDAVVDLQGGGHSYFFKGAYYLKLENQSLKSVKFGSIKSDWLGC
Protocol: TTC buffer solution was attached to a MMP-2 enzyme assay kit, and the solution was made of 50 mM tris, 1 mM calcium chloride solution and 0.05% Triton X-100 solution, and was adjusted to pH 7.5.
Test 3 MMP-2 Inhibition Activity Test
MMP-2 enzyme assay kit (Gelatinase Activity Assay, Roche.Diagonistics) was used.
A mixture of 1.2U human MMP-2 (20 μl, Boeringer Manheim 30U freezed dry product), TTC buffer (980 μl) and 2.5 mM 4-aminophenyl mercuric acetate solution (144 μl) was incubated at 37° C. for 30 minutes and then it was preserved under ice cooling until use.
A mixture of DMSO solution (2 μl) containing a definite concentration of the compound, biotin labeled gelatin (188 μl) and activated MMP-2 solution (10 μl) was put on a 96 well-assay plate (protein nonabsorbance type), well agitated and incubated at 37° C. for 1 hour. This solution was transferred to a Streptavidin-coating plate and agitated at 15° C, to 30° C. for 30 minutes. And then the solution was washed with TTC buffer solution (200 μl) three times. Thereto was added Streptavidin-POD (200 μl) and the mixture was agitated at 15° C. to 25° C. for 60 minutes, followed by washing with TTC buffer (200 μl) three times. Then, ABTS solution (200 μl) was added thereto and after standing at room temperature for 40 minutes, furuorescence intensity was measure at 405 nm and IC50 was calculated.
In case of the above test, a control and a blank were prepared when the well was prepared as mentioned below. DMSO (2 μl) was used as a control instead of a sample solution. In the case of a blank, DMSO (2 μl) instead of the sample solution and the solution (10 μl) prepared in the same manner as preparation of activated MMP-2 solution but without adding 1.2U human MMP-2, instead of activated MMP-2 solution (10 μl), were used.

| SMILES | IC50 (MMP-13) | IC50 (MMP-2) |
| --- | --- | --- |
| CCOC(=O)CN(C1(C(=O)NO)CCC1)S(=O)(=O)c1ccc(Oc2ccc(S(C)(=O)=O)cc2)cc1 [Example 46, Ethyl N-{1-[(hydroxyamino)carbonyl]cyclobutyl}-N-({4-[4-(methylsulfonyl)phenoxy]phenyl}sulfonyl)glycinate] | 10.5 nM | > 100 nM |
| CS(=O)(=O)c1ccc(Oc2ccc(S(=O)(=O)NC3(C(=O)NO)CCC3)cc2)cc1 [Example 48, N-Hydroxy-1-[({4-[4-(methylsulfonyl)phenoxy]phenyl}sulfonyl)amino]cyclobutanecarboxamide] | 6.9 nM | > 100 nM |
| CS(=O)(=O)c1ccc(Oc2ccc(CC3Sc4ccc(C(=O)O)cc4N(CC(=O)NO)C3=O)cc2)cc1 (centres unmarked) [Example 50] | 3 nM | > 100 nM |
| COc1ccc(Oc2ccc(CC3Sc4ccc(C(=O)O)cc4N(CC(=O)NO)C3=O)cc2)cc1 (centres unmarked) [compound 1, reference compound] | 7.4 nM | > 100 nM |
